Experimental data taken from US20150032088A1, “SUSTAINED DRUG DELIVERY FROM SOLID STATE COMPOSITIONS WITH NANOCHANNEL MEMBRANES” (priority 2012, published 2015).

How the values were obtained:
Format in all cases: physicochemical
[1] = Levothyroxine release from capsule with 3 nm nanochannel membrane into sink solution; details: powder, 2 separate experiments (019, 040)
Description: The implantable capsule comprising one or more nanochannel membranes were fabricated according to US 2010/0152699 and PCT/US2009/064376. The nanochannel membranes present nanochannels ranging in sizes between 3 and 50 nm. The nanochannel membranes (FIG. 2A) were produced in 29 configurations presenting different constant rates of delivery. Custom diffusion devices (FIG. 2B) were utilized for measuring the amount of drug released from nanochannel membrane devices using UV-spectroscopy, as described in Grattoni et al., Lab on a Chip 10:3074-3083 (2010) and Grattoni et al., Anal. Chem. 83:3096-3103 (2011). A linear standard curve relating UV absorbance and concentration of diffused substance was obtained at a wavelength of 250 nm and used for the release test of testosterone. A linear standard curve relating UV absorbance and concentration of diffused substance was obtained at a wavelength of 240 nm and used for the release test of levothyroxine. […]
PEEK capsules were loaded with 852 and 875 μL of Millipore water and 17.1 mg of powder. […] For the release measurement, a UV-Vis absorbance versus concentration standard curve was prepared. The absorbance was measured at 240 nm. The sampling method consisted of removing 1.5 mL of the sink solution, measuring the absorbance, and returning the sample to the bottle. […]

[2] = Preliminary release of testosterone from solid pellets through 3 nm nanochannel membrane (UV absorbance)
Procedure: In a preliminary experiment, the nanochannel implant was loaded with degradable testosterone pellets immersed in DI water. The amount of DI water inserted in the capsule was approximately 700 μL.

[3] = First long-term testosterone release experiment, capsule with 3 nm membrane into sink solution; details: pellet formulation (Testopel), 3 nm nanochannel membrane, 37° C.
Procedure: In the first long-term testosterone release experiment, two testosterone formulations, powder and pellet (Testopel), were used. The release experiment was performed from a capsule into a bottle containing the recipient sink solution. A 3 nm membrane was used for each testosterone formulation and assembled within the capsule. Each nanochannel presented a width of 5 μm and a length of 3 μm. The nanochannel membrane was fabricated by NanoMedical Systems, Inc., Austin Tex. by using the fabrication methods as described in PCT/US2009/064376. In general, the nanochannel membrane was fabricated with microfabrication techniques by employing a sacrificial layer technique, to obtain precise nanochannels parallel to the membrane surface and connected to the membrane inlet and outlet by means of sets of microchannels.
The total number of nanochannel per membrane is equal to 118496. Testosterone powder (21.2 mg) was weighted into the titanium capsule, which was filled with 791 μL of Millipore water. […] For the release measurement of both testosterone conformations, a UV-Vis absorbance versus concentration standard curve was prepared. The testosterone solutions were sampled every other day and the UV absorbance was measured at a wavelength of 250 nm. The sampling method consisted of removing 1.5 mL of the sink solution, measuring the absorbance, and returning the sample to the bottle. […]

[4] = Second long-term testosterone release experiment, capsule with 40 nm membrane into sink solution; details: pellet formulation (Testopel), 40 nm nanochannel membrane
Description: The second long-term testosterone release experiment was run with the same setup and measurement method. In this case, 40 nm membranes with 8 μm wide and 1 μm long nanochannels were used for both testosterone formulations. The nanochannel membrane was fabricated by NanoMedical Systems, Inc., Austin Tex. by using the fabrication methods as described in PCT/US2009/064376. In general, the nanochannel membrane was fabricated with microfabrication techniques by employing a sacrificial layer technique, to obtain precise nanochannels parallel to the membrane surface and connected to the membrane inlet and outlet by means of sets of microchannels.
Testosterone powder and pellet (26 and 24.7 mg, respectively) were weighted into PEEK capsules. Both capsules were filled with 900 μL and dropped into 90 mL of Millipore water. The sampling measurement was performed every other day with the same method described above.

Row | SMILES | duration of continuous and constant release of levothyroxine [1] [days] | approximate daily release rate of levothyroxine ([1]; 37° C.) [µg/day] | duration of constant release of testosterone ([2]; solid pellets) [days] | release rate of testosterone ([2]; solid pellets (24 mg testosterone) in DI water) [µg/day] | duration of constant (linear) delivery of testosterone [3] | duration of constant (linear) delivery of testosterone [4]
1 | N[C@@H](Cc1cc(I)c(Oc2cc(I)c(O)c(I)c2)c(I)c1)C(=O)O.O.O.O.O.O.[Na] [levothyroxine, L-thyroxine sodium pentahydrate] | 17 | ~500 | – | – | – | –
2 | C[C@]12CC[C@H]3[C@@H](CCC4=CC(=O)CC[C@@]43C)[C@@H]1CC[C@@H]2O [testosterone] | – | – | 13 | 5 | over 180 days | over 160 days
